Measurements published in patent publication US4740501A (priority 1985, dated 1988).
Where “and” joins values, the source holds several entries; their conditions need not be identical. Equal entries are not always repeated.

Columns and labels:
[1] = tested on: L-1210 leukemia cell suspensions; assay: Tumor cell survival (trypan blue), continuous exposure; type: cell-based, Mouse; details: for Percent Tumor Cell Survival / % tumor cell survival: L-1210; for Percent Tumor Cell Survival: treated 24 hr
P HR-1 B-lymphoma = assay: as above; type: cell-based, Human
B-16 melanoma cells = assay: Tumor cell survival after pulse treatment; type: cell-based, Mouse; details: for Percent Tumor Cell Survival: viability 24 hr later
Protocol: (§1) MJY-alpha mammary tumor cell layers were initiated at 2×10^5 cells/2 cm^2 well (Nuncion Multidish 4, Vangard International, Neptune, NJ) using cells spontaneously released into the medium from confluent 6-8 day old cell layers. B-16 melanoma cells obtained from 4-day-old cell confluent cultures by trypsinization with STV were plated at 2.2×10^5 cells/cm^2 well. These seeding densities yielded lightly confluent layers (2.3-2.6×10^5 cell/cm^2). following treatment the layers were rinsed twice and reincubated with growth media: media were changed daily until the cultures were terminated.
(§2) Survival of tumor cell layers or suspensions was ascertained using 0.5% trypan blue in 0.1M phosphate-buffered saline, pH 7.25. Cell layers were released from the Multidish-4 wells with 0.5 ml STV, diluted 2 to 10 fold with the vital strain; tumor cells in suspension cultures were directly mixed 1:1 with the trypan blue dye. Tumor cells were enumerated using a haemocytometer; all 10 fields were counted for every sample. Percent viable cells was determined by direct comparison of the numbers of cells excluding trypan blue in treated cultures to those in untreated or diluent-treated parallel cultures. There were no significant differences in the viability of cells treated with diluent when compared to untreated cells.
(§3) To delineate the minimum concentration and duration of the tripeptide compound exposure to induce cytolysis, MJY-alpha and B-16 melanoma cell layers and L-1210 leukemia cell suspensions were exposed to 0.5 to 50 ug of the tripeptide compound per ml of solvent for 0.25 to 4 hours. The tripeptide compound was then removed and the cells washed and reincubated in media growth. Tumor cell viability was determined 24 hrs after pulse tripeptide compound exposure. Cell survival of all three tumor cell lines was reduced by an exposure period of as short as 15 min (Table 4). The degree of cytolysis increased with extension of the treatment periods from 15 min to 4 hrs, although the decreases in cell survival were not proportional to the duration of the exposure. […] Comparison of the data in Tables 2 and 4 reveal that cells exposed to the tripeptide compound for one hour were irreversibly damaged when assayed a day later despite their apparent viability immediately after treatment.
(§4) The reversibility of the cancericidal activity of the tripeptide compounds on L-1210 leukemia, MJY-alpha mammary tumor and B-16 melanoma cells was also monitored in the nonhostile tissue culture environment. Cell suspensions of these tumor models were treated with tripeptide for 15 to 240 min, washed and either inoculated into mice or maintained as suspension (L-1210) or monolayer cultures (MJY-alpha and B-16). Reductions in tumor cells survival were negligible (0-6%) in all three tumor systems at initiation of in vitro cultures following treatment with 50 ug tripeptide/ml for as long as 4 hrs. However, significant decreases in cellular viabilities of L-1210 leukemia (FIG. 9), MJY-alpha mammary tumor (FIG. 10) and B-16 melanoma (FIG. 11) tumor cells were observed 24 hr following tripeptide exposure and for the next 6 days.

[2] = tested on: MJY-alpha mammary tumor cells; assay: Tumor cell survival after pulse treatment; type: cell-based, Mouse; details: for Percent Tumor Cell Survival: viability 24 hr later
Protocol: as §1, §2, §3, §4

MJY-alpha monolayers = type: cell-based
MMTV polypeptides = type: cell-based, mouse
[3] = tested on: MJY-alpha mammary tumor cell layers; assay: Morphology of treated cell layers (May-Grunwald-Giemsa); type: cell-based; details: 5 and 10 ug/ml for 15 to 60 minutes
Protocol: Confluent MJY-alpha mammery tumor cell layers were treated with […] or diluent for 15 or 60 minutes, washed, and then incubated in growth medium. Representative cell layers were fixed and stained with May-Grunwald-Giemsastain from one (1) to seven (7) days after treatment as specified. Hemicysts or domes which are usually observed in short-term cultures of murine, MMTV-induced mammary tumors are not present in MJY-alpha cultures (FIG. 12a and b). […] Cellular pseudopodia were withdrawn and the cytoplasm appeared condensed around the nuclei (FIG. 12c and d). The most striking feature of exposure to high concentrations of PTT.119 was the ruffling of the plasma membrane and the formation of vesicles and blebs. […] This alteration was closely followed by visible increases in the cytosol volume or rarefaction of the cytoplasm (FIG. 12f). The degree of further pathological alterations of MJY-alpha mammary tumor cells was dependent on the dosage of PTT.119 and included lobulation and fragmentation of the nuclei, and the formation of multinuclear cells (FIG. 12f and h). […] Chromosomal condensation was not inhibited in multinucleated cells or in cells with highly lobulated or fragmented nuclei (FIG. 12h).

[4] = 50 ug/ml for as long as 4 hrs (all three tumor systems)

In the case of `CCOC(=O)[C@H](CCSC)NC(=O)[C@H](Cc1cccc(N(CCCl)CCCl)c1)NC(=O)[C@@H](N)Cc1ccc(F)cc1.Cl` [PTT.119, 3-(p-fluorophenyl)-L-alanyl-3-[m-bis(2-chloroethyl)aminophenyl]-L-alanyl-L-methionine ethyl ester hydrochloride], the “Percent Tumor Cell Survival” value ([1]; 0.1 ug/ml) is reported as 82%, the “% tumor cell survival” value ([1]; 1 ug/ml, 1 hr exposure) is reported as 95% and the “% tumor cell survival” value ([1]; 1 ug/ml, 8 hr) is reported as 100%. For the same molecule, the “% tumor cell survival” value ([1]; 1 ug/ml, 24 hr) was 65%, the “Percent Tumor Cell Survival” value ([1]; 1 ug/ml) was 70% and the “% tumor cell survival” value ([1]; 5 ug/ml, 1 hr) was 100%. The “% tumor cell survival” value ([1]; 5 ug/ml, 4 hr) was 84%, the “% tumor cell survival” value ([1]; 5 ug/ml, 24 hr) was 57% and the “Percent Tumor Cell Survival” value ([1]; 5 ug/ml) was 62%. For the same molecule, the “% tumor cell survival” value ([1]; 10 ug/ml, 1 hr) was 92%, the “% tumor cell survival” value ([1]; 10 ug/ml, 4 hr) was 75% and the “% tumor cell survival” value ([1]; 10 ug/ml, 24 hr) was 12%. The “Percent Tumor Cell Survival” value ([1]; 10 ug/ml) was 28%, the “% tumor cell survival” value ([1]; 25 ug/ml, 1 hr) was 50% and the “% tumor cell survival” value ([1]; 25 ug/ml, 4 hr) was 25%. For the same molecule, the “% tumor cell survival” value ([1]; 25 ug/ml, 8 hr) was 15%, the “% tumor cell survival” value ([1]; 25 ug/ml, 24 hr) was 0% and the “Percent Tumor Cell Survival” value ([1]; 25 ug/ml) was 6%. For the same molecule, the “decrease in leukemia cell survival” value ([1]; continuous 24 hr exposure, all concentrations tested (0.1 to 50 ug/ml)) was 18-94%, the “% tumor cell survival” value (P HR-1 B-lymphoma; 10 ug/ml, 1 hr) was 96% and the “% tumor cell survival” value (P HR-1 B-lymphoma; 10 ug/ml, 4 hr) was 91%. For the same molecule, the “% tumor cell survival” value (P HR-1 B-lymphoma; 10 ug/ml, 24 hr) was 75%, the “% tumor cell survival” value (P HR-1 B-lymphoma; 25 ug/ml, 1 hr) was 92% and the “% tumor cell survival” value (P HR-1 B-lymphoma; 25 ug/ml, 4 hr) was 86%. The “% tumor cell survival” value (P HR-1 B-lymphoma; 25 ug/ml, 24 hr) was 69%, the “% tumor cell survival” value (P HR-1 B-lymphoma; 50 ug/ml, 1 hr) was 93% and the “% tumor cell survival” value (P HR-1 B-lymphoma; 50 ug/ml, 4 hr) was 75%. For the same molecule, the “% tumor cell survival” value (P HR-1 B-lymphoma; 50 ug/ml, 24 hr) was 60%, the “Percent Tumor Cell Survival” value (B-16 melanoma cells; 5 ug/ml, pulse 1 hr) was 88% and the “Percent Tumor Cell Survival” value (B-16 melanoma cells; 5 ug/ml, pulse 2 hr) was 66%. For the same molecule, the “Percent Tumor Cell Survival” value (B-16 melanoma cells; 5 ug/ml, pulse 4 hr) was 79%, the “Percent Tumor Cell Survival” value (B-16 melanoma cells; 5 ug/ml, pulse .5 hr) was 93% and the “Percent Tumor Cell Survival” value (B-16 melanoma cells; 10 ug/ml, pulse 1 hr) was 68%. The “Percent Tumor Cell Survival” value (B-16 melanoma cells; 10 ug/ml, pulse 2 hr) was 73%, the “Percent Tumor Cell Survival” value (B-16 melanoma cells; 10 ug/ml, pulse 4 hr) was 63% and the “Percent Tumor Cell Survival” value (B-16 melanoma cells; 10 ug/ml, pulse .5 hr) was 75%. For the same molecule, the “Percent Tumor Cell Survival” value (B-16 melanoma cells; 25 ug/ml, pulse 1 hr) was 60%, the “Percent Tumor Cell Survival” value (B-16 melanoma cells; 25 ug/ml, pulse 2 hr) was 56% and the “Percent Tumor Cell Survival” value (B-16 melanoma cells; 25 ug/ml, pulse 4 hr) was 52%. For the same molecule, the “Percent Tumor Cell Survival” value (B-16 melanoma cells; 25 ug/ml, pulse .25 hr) was 82%, the “Percent Tumor Cell Survival” value (B-16 melanoma cells; 25 ug/ml, pulse .5 hr) was 67% and the “reductions in tumor cell survival at initiation of in vitro cultures” value (B-16 melanoma cells; [4]) was 0-6%. For the same molecule, the “Percent Tumor Cell Survival” value (B-16 melanoma cells; 50 ug/ml, pulse 1 hr) was 48%, the “Percent Tumor Cell Survival” value (B-16 melanoma cells; 50 ug/ml, pulse .25 hr) was 65% and the “Percent Tumor Cell Survival” value (B-16 melanoma cells; 50 ug/ml, pulse .5 hr) was 62%. The “Percent Tumor Cell Survival” value ([2]; 5 ug/ml, pulse 1 hr) was 89%, the “Percent Tumor Cell Survival” value ([2]; 5 ug/ml, pulse 2 hr) was 77% and the “Percent Tumor Cell Survival” value ([2]; 5 ug/ml, pulse 4 hr) was 76%. The “Percent Tumor Cell Survival” value ([2]; 5 ug/ml, pulse .5 hr) was 94%, the “Percent Tumor Cell Survival” value ([2]; 10 ug/ml, pulse 1 hr) was 70% and the “Percent Tumor Cell Survival” value ([2]; 10 ug/ml, pulse 2 hr) was 64%. For the same molecule, the “Percent Tumor Cell Survival” value ([2]; 10 ug/ml, pulse 4 hr) was 48%, the “Percent Tumor Cell Survival” value ([2]; 10 ug/ml, pulse .25 hr) was 68% and the “Percent Tumor Cell Survival” value ([2]; 10 ug/ml, pulse .5 hr) was 67%. For the same molecule, the “Percent Tumor Cell Survival” value ([2]; 25 ug/ml, pulse 1 hr) was 51%, the “Percent Tumor Cell Survival” value ([2]; 25 ug/ml, pulse 2 hr) was 46% and the “Percent Tumor Cell Survival” value ([2]; 25 ug/ml, pulse 4 hr) was 44%. For the same molecule, the “Percent Tumor Cell Survival” value ([2]; 25 ug/ml, pulse .25 hr) was 61%, the “Percent Tumor Cell Survival” value ([2]; 25 ug/ml, pulse .5 hr) was 37% and the “reductions in tumor cell survival at initiation of in vitro cultures” value [2, 4] was 0-6%. The “Percent Tumor Cell Survival” value ([2]; 50 ug/ml, pulse 1 hr) was 41%, the “Percent Tumor Cell Survival” value ([2]; 50 ug/ml, pulse .25 hr) was 45% and the “Percent Tumor Cell Survival” value ([2]; 50 ug/ml, pulse .5 hr) was 32%. The “reduction of viability of tumor cell layers compared to solvent” value (MJY-alpha monolayers) was 15-20%, the “decrease of level of p24 compared to virions from solvent cultures” value (MMTV polypeptides) was 36% and the “level of nonglycosylated protein p24 in MMTV particles” value (MMTV polypeptides) was “substantial decreases”. The “level of p24 protein in the virion core” value (MMTV polypeptides) was “diminution”, the “reduction in p24” value (MMTV polypeptides) was 71% and the “relative level of p24 compared to control” value (MMTV polypeptides) was 35-40%. The “relative contribution of p24 in the virions, % of control level” value (MMTV polypeptides; hydrochloride) was 54% and 74% and 65% and the “appearance of cell layers” value [3] was “appeared unchanged”.
